Experimental data: patent publication US8383631B2, “1,6-disubstituted-3-amino-4,5,6,7-tetrahydro-1H-pyrazolo[3,4-C]pyridin-7-one compounds and preparation thereof” (Korea Institute of Science and Technology, priority 2010, dated 2013)

How the values were obtained:
Assay type in all cases: cell-based
[1] = system: DU-145; test: SRB anticancer activity screening, DU-145; parameters: Inhibition % for cancer cells DU-145: dose or concentration left out as unconfirmed; details: DU-145 human prostate cancer, 48 hours
Description: (§1) A-549 (human lung carcinoma), HT-29 (human colon adenocarcinoma), DU145 (human prostate cancer), SK-MEL-2 (human malignant melanoma) and SK-OV-3 (human ovary malignant ascites) cells were used to evaluate the anticancer activity of the test compounds. All the cancer cells are all tumors cells derived from human and were acquired from the Korean Cell Line Bank. RP MI 1640 medium containing 10% fetal bovine serum was used as a culture medium. Cell culturing was performed in a constant-temperature, constant-humidity incubator (37° C., 5% CO2). Subculturing was performed once in 3 days, using 0.25% trypsin-1 mM EDTA.
(§2) The sulforhodamine B ([…]) assay, which was developed in 1989 by the National Cancer Institute to measure in vitro anticancer activity of drugs, was employed.
(§3) The subcultured cells were transferred using trypsin-EDTA solution to a 96-well microplate, at 5×10^3 cells per well, and then cultured in a CO2 incubator for 24 hours. After removing the medium and adding a solution of the test compound (100 μL) diluted 4-fold, the cells were cultured for 48 hours. […] After completely lysing the cells by adding 10 mM Trizma base (pH 10.3, 200 μL) to each well, absorbance was measured at 520 nm.
(§4) In order to evaluate the activity of the test compound for the cancer cells, GI50 was calculated according to Equation 1 or 2. […]
(§5) Then, IC50 value was calculated from the inhibitory concentration.

[2] = system: HT-29; test: SRB anticancer activity screening, HT-29; parameters: Inhibition % for cancer cells HT-29: dose or concentration left out as unconfirmed; details: HT-29 human colon adenocarcinoma, 48 hours
Description: as §1, §2, §3, §4, §5

[3] = system: HCT-116; test: SRB anticancer activity screening, HCT-116; parameters: Inhibition % for cancer cells HCT-116: dose or concentration left out as unconfirmed; details: HCT-116 human colon cancer, 48 hours
[4] = system: A375P; test: SRB anticancer activity screening, A375P; parameters: Inhibition % for cancer cells A375P: dose or concentration left out as unconfirmed; details: A375P human melanoma cancer, 48 hours

| Compound | Inhibition % for cancer cells DU-145 [1] | Inhibition % for cancer cells HT-29 [2] | Inhibition % for cancer cells HCT-116 [3] | Inhibition % for cancer cells A375P [4] | IC50 ([1]; read-out: IC50 (μM) for cancer cells DU-145) | IC50 ([2]; read-out: IC50 (μM) for cancer cells HT-29) | IC50 ([3]; read-out: IC50 (μM) for cancer cells HCT-116) | IC50 ([4]; read-out: IC50 (μM) for cancer cells A375P) |
| --- | --- | --- | --- | --- | --- | --- | --- | --- |
| Cc1ccc(N2CCc3c(N)nn(C(=O)CCN4CCN(c5ccc(Cl)cc5)CC4)c3C2=O)cc1 [Compound 9, 3-amino-1-[{4-(4-chlorophenyl)piperazin-1-yl}propanoyl]-6-N-(p-tolyl)-4,5,6,7-tetrahydro-1-H-pyrazolo[3,4-c]pyridin-7-one] | 80.02% | 90.54% | 92.19% | 95.03% |  |  |  |  |
| Cc1ccc(N2CCN(CCC(=O)n3nc(N)c4c3C(=O)N(Cc3ccccc3)CC4)CC2)c(C)c1 [Compound 17, 3-amino-1-[{4-(2,4-dimethylphenyl)piperazin-1-yl}propanoyl]-6-N-benzyl-4,5,6,7-tetrahydro-1H-pyrazolo[3,4-c]pyridin-7-one] |  |  |  |  | 0.4 ± 0.02 µM | 0.15 ± 0.01 µM | 0.34 ± 0.01 µM | 0.34 ± 0.03 µM |
